Where a SMILES comes first, the peptide text is derived from it. Bridges are numbered along the chain shown (N, C = ends). [ ]: non-standard residue; d: D form. The star is where a group is joined. hPhe(3-Cl-4-CF3) = N[C@@H](CCc1ccc(C(F)(F)F)c(Cl)c1)C(=O)O; NPrPhe(4-CF3) = CCCN[C@@H](Cc1ccc(C(F)(F)F)cc1)C(=O)O; Pro(4-spirocPr) = O=C(O)[C@@H]1CC2(CC2)CN1; NMeGly(cPent) = CN[C@H](C(=O)O)C1CCCC1; NMeD = CN[C@@H](CC(=O)O)C(=O)O; NMeL = CN[C@@H](CC(C)C)C(=O)O; Morpholide = C1CN(*)CCO1; Ac5c = NC1(C(=O)O)CCCC1; NEtG = CCNCC(=O)O; Sar = CNCC(=O)O
Key:
[1] = molecular target: GDP-bound NRAS wild-type protein (Homo sapiens, UniProt P01111); assay: Binding to NRAS by surface plasmon resonance (SPR), Single Cycle Kinetics; conditions: for NRAS/KRAS (ratio of KD value for NRAS to KD value for KRAS): GDP-bound NRAS wild-type vs GDP-bound KRAS wild-type
GDP-bound NRAS wild-type protein, sequence (P01111 whole entry): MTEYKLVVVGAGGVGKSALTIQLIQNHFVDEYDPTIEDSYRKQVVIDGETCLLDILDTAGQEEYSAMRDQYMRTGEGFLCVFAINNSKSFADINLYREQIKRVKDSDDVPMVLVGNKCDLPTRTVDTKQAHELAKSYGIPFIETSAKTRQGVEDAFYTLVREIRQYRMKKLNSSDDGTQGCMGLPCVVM

[2] = molecular target: GDP-bound HRAS wild-type protein (Homo sapiens, UniProt P01112); assay: Binding to HRAS by surface plasmon resonance (SPR), Single Cycle Kinetics; conditions: for HRAS/KRAS (ratio of KD value for HRAS to KD value for KRAS): GDP-bound HRAS wild-type vs GDP-bound KRAS wild-type
GDP-bound HRAS wild-type protein, sequence (P01112 whole entry): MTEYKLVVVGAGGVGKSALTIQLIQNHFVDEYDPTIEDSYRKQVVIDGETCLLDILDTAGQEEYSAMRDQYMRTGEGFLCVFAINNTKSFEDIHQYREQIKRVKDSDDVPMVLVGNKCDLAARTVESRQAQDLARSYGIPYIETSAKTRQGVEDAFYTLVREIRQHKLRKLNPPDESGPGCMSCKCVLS

For `CCC[C@H]1C(=O)N[C@@H]([C@@H](C)CC)C(=O)N(C)CC(=O)N(C)[C@H]2C/C=C\CCN(C2=O)[C@@H](Cc2ccc(C)cc2)C(=O)N(C)CC(=O)N[C@@H](CCc2cc(F)c(C(F)(F)F)c(F)c2)C(=O)N2C[C@H](OCC)C[C@H]2C(=O)NC2(CC(C)(C)C2)C(=O)N(C)[C@@H](CC(F)(F)F)C(=O)N(C)[C@H](C(=O)N(C)C)CC(=O)N1C` [PP2993], the “NRAS/KRAS (ratio of KD value with respect to GDP-bound NRAS wild-type protein to KD value with respect to KRAS)” value ([1]; KD ratio NRAS/KRAS, SPR, GDP-bound wild-type proteins) was “A (a compound having 10 or more and less than 20 is denoted as A)” and the “HRAS/KRAS (ratio of KD value with respect to GDP-bound HRAS wild-type protein to KD value with respect to KRAS)” value ([2]; KD ratio HRAS/KRAS, SPR, GDP-bound wild-type proteins) was “A (a compound having 10 or more and less than 20 is denoted as A)”.
For `CCCN1C(=O)CN(C)C(=O)CN(CC)C(=O)[C@H]([C@@H](C)CC)NC(=O)[C@H](CC(C)C)N(C)C(=O)C[C@@H](C(=O)N2CCOCC2)N(C)C(=O)[C@H](C2CCCC2)N(C)C(=O)C2(CCCC2)NC(=O)[C@@H]2CC3(CC3)CN2C(=O)[C@H](CCc2ccc(C(F)(F)F)c(Cl)c2)NC(=O)CN(C)C(=O)[C@@H]1Cc1ccc(C(F)(F)F)cc1` [PP0295] ([NMeL]I[NEtG][Sar][NPrPhe(4-CF3)][Sar][hPhe(3-Cl-4-CF3)][Pro(4-spirocPr)][Ac5c][NMeGly(cPent)][NMeD]-Morpholide; lactam N-11), the “NRAS/KRAS (ratio of KD for GDP-bound NRAS wild-type to KD for KRAS)” value ([1]; KD ratio NRAS/KRAS, SPR) was “B (a compound having 3 or more and less than 10 is denoted as B)” and the “HRAS/KRAS (ratio of KD for GDP-bound HRAS wild-type to KD for KRAS)” value ([2]; KD ratio HRAS/KRAS, SPR) was “C (A compound having a KD ratio of 0.1 or more and less than 3 is denoted as C)”.
In the case of `CCO[C@@H]1C[C@H]2C(=O)NC3(CCC3)C(=O)N(C)[C@@H](C3CCCC3)C(=O)N(C)[C@H](C(=O)N(C)C)CC(=O)N(C)[C@@H](C)C(=O)N[C@@H]([C@H](C)CC)C(=O)N(C)CC(=O)N(C)[C@H]3CCCCCN(C3=O)[C@@H](Cc3ccc(C(F)(F)F)cc3)C(=O)N(C)CC(=O)N[C@@H](CCc3cc(F)c(C(F)(F)F)c(F)c3)C(=O)N2C1` [PP0729], the “NRAS/KRAS (ratio of KD value with respect to GDP-bound NRAS wild-type protein to KD value with respect to KRAS)” value ([1]; KD ratio NRAS/KRAS, SPR) is reported as “B (a compound having 3 or more and less than 10 is denoted as B)” and the “HRAS/KRAS (ratio of KD value with respect to GDP-bound HRAS wild-type protein to KD value with respect to KRAS)” value ([2]; KD ratio HRAS/KRAS, SPR) is reported as “B (a compound having 3 or more and less than 10 is denoted as B)”.
In the case of `CCO[C@@H]1C[C@H]2C(=O)NC3(CC(C)(C)C3)C(=O)N(C)[C@@H](C3CCCC3)C(=O)N(C)[C@H](C(=O)N(C)CC)CC(=O)N(C)[C@@H](CC(C)C)C(=O)N[C@@H]([C@@H](C)OCC)C(=O)N(C)CC(=O)N(C)[C@H]3C/C=C\CCN(C3=O)[C@@H](Cc3ccc(C(F)(F)F)cc3)C(=O)N(C)CC(=O)N[C@@H](CCc3cc(F)c(C(F)(F)F)c(F)c3)C(=O)N2C1` [PP1919], the “NRAS/KRAS (ratio of KD value for NRAS to KD value for KRAS)” value ([1]; SPR) is reported as “A (a compound having 10 or more and less than 20 is denoted as A)” and the “HRAS/KRAS (ratio of KD value for HRAS to KD value for KRAS)” value ([2]; SPR) is reported as “A (a compound having 10 or more and less than 20 is denoted as A)”.
For `CC[C@H](C)[C@@H]1NC(=O)[C@H](CC)N(C)C(=O)C[C@@H](C(=O)N(C)C)N(C)C(=O)[C@H](C2CCCC2)N(C)C(=O)C2(CC(C)(C)C2)NC(=O)[C@@H]2C[C@H](C)CN2C(=O)[C@H](CCc2ccc(C(F)(F)F)c(Cl)c2)NC(=O)CN(C)C(=O)[C@H](Cc2ccc(C)cc2)N2CC/C=C\C[C@@H](C2=O)N(C)C(=O)CN(C)C1=O` [PP1844], the “NRAS/KRAS (ratio of KD value for NRAS to KD value for KRAS)” value ([1]; SPR) was “A (a compound having 10 or more and less than 20 is denoted as A)” and the “HRAS/KRAS (ratio of KD value for HRAS to KD value for KRAS)” value ([2]; SPR) was “B (a compound having 3 or more and less than 10 is denoted as B)”.
For `C#CCN1CC(=O)N(C)[C@H]2C/C=C\CCN(C2=O)[C@@H](Cc2ccc(C)cc2)C(=O)N(C)CC(=O)N[C@@H](CCc2cc(F)c(C(F)(F)F)c(F)c2)C(=O)N2C[C@H](OCC)C[C@H]2C(=O)NC2(CCC2)C(=O)N(C)[C@@H](C2CCCC2)C(=O)N(C)[C@H](C(=O)N(C)C)CC(=O)N(C)[C@@H](CCC)C(=O)N[C@@H](CC(C)C)C1=O` [PP2536], the “NRAS/KRAS (ratio of KD value with respect to GDP-bound NRAS wild-type protein to KD value with respect to KRAS)” value ([1]; KD ratio NRAS/KRAS, class symbols) was “A (a compound having 10 or more and less than 20 is denoted as A)” and the “HRAS/KRAS (ratio of KD value with respect to GDP-bound HRAS wild-type protein to KD value with respect to KRAS)” value ([2]; KD ratio HRAS/KRAS, class symbols) was “B (a compound having 3 or more and less than 10 is denoted as B)”.

— US20250230193A1, “CYCLIC COMPOUND HAVING SELECTIVE KRAS INHIBITORY EFFECT ON HRAS AND NRAS” (CHUGAI SEIYAKU KABUSHIKI KAISHA, priority 2022, published 2025)
